# Experimental data published in patent US11000495B2, “Topical diclofenac sodium compositions” (Novartis Consumer Health S.A., priority 2014, dated 2021).
# Structures can show the parent of a compound that is named as a salt.
# What was measured:
# [1] = cited from earlier work
# [2] = Solubility of diclofenac sodium 2 wt % in IPA/PG/water solvent mixtures by UV absorbance; assay type: physicochemical; conditions: 2% diclofenac sodium in IPA/PG/water, 25° C., systems shown as circles in FIG. 1
# Protocol: FIG. 1 is a ternary diagram of the solubility of diclofenac sodium, 2 wt %, at 25° C., as determined by UV absorbance, in solvent mixtures comprising isopropyl alcohol (bottom axis), propylene glycol (left axis), and water (right axis) in varying amounts. The data points represent solvent mixtures which are found to be at or above (circles), or below (squares), the target (i.e. 2%) solubility. FIG. 1 illustrates solubility studies of such solvent systems comprising 2% diclofenac sodium in isopropyl alcohol (IPA), propylene glycol (PG) and water. […] (Incomplete solubilization is represented by squares.)
solubility of the salt in solvent systems [2],Structure (SMILES),"water solubility ([1]; acid form, Fini et al.)","kinetic solubility ([1]; anhydrous form, Llinas et al.) [µg/mL]"
–,"O=C(O)Cc1ccccc1Nc1c(Cl)cccc1Cl [Acidic diclofenac, diclofenac]",very low,–
Complete solubility,"O=C(O)Cc1ccccc1Nc1c(Cl)cccc1Cl [diclofenac sodium, 2-[(2,6-dichloro-phenyl)amino]benzeneacetic acid, (mono) sodium salt]",–,40 ± 5
